{"source": "paper PMC7618597", "about": "“Dual Nurr1/RXR agonism of valerenic acid and synthetic mimetics enables dimer-selective Nurr1 modulation” (ACS medicinal chemistry letters, 2025)", "key": {"[1]": {"target": "T1, RXRα LBD (Homo sapiens, UniProt P19793)", "T1 construct": "made in house", "T1 sequence (P19793 227-458 limits assumed)": "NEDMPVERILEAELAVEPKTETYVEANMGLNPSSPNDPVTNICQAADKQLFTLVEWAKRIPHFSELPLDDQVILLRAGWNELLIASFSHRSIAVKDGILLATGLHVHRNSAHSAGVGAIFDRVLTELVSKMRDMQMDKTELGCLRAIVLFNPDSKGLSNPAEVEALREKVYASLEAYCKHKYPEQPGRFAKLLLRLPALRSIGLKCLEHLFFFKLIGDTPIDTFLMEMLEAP", "assay": "Isothermal titration calorimetry, recombinant RXRα LBD", "format": "binding", "conditions": "ITC", "experimental": "Isothermal titration calorimetry. ITC experiments for ligand binding to Nurr1 and RXR were conducted on an Affinity ITC instrument (TA Instruments, New Castle, DE) at 25 °C with a stirring rate of 75 rpm using recombinantly expressed ligand binding domain proteins as described previously5,6. The respective LBD protein (12–25 μM) in buffer (20 mM Tris pH 7.5, 100 mM NaCl, 5% glycerol) containing 2-4% DMSO was titrated with the test compounds (100-150 μM in the same buffer containing 2-4% DMSO) in 21–26 injections (1 × 1 μL and 20 × 4 to 25 × 4 μL) with an injection interval of 120 s. As control experiments, the test compounds were titrated to the buffer, and the buffer was titrated to the protein under otherwise identical conditions. The heat rates of the compound-Nurr1 LBD titrations were analyzed using NanoAnalyze software (TA Instruments, New Castle, DE) with an independent binding model."}, "[2]": {"system": "HEK293T cells", "assay": "Multiplex toxicity assay", "format": "cell-based", "conditions": "for toxicity at the test concentrations of the gene expression study: 2 (10 μM), 3 (1 μM), multiplex toxicity assay; for concentration at which toxic effects start: HEK293T cells, confluence, metabolic activity, pyknosis, necrosis, n=4", "experimental": "page 9: and 20 s of elongation at 68 °C. PCR product specificity was evaluated using a melting curve analysis ranging from 65 to 95 °C. Nurr1 target gene expression was normalized to rGAPDH mRNA expression per sample using the ΔCt-method. The following primers and annealing temperatures were used: rGAPDH (59.4 °[…]); rTH (59.4 °C): 5'-[…]); rFLRT2 (59.0 °C): 5'-[NT]); rSESN3 (62.4 °C): […]); rCRMP4 (58.0 °C): […]); rBDNF (58.0 °C): 5'-[NT]); rBIRC5 (59.4 °C): 5'-[…]); rCCND2 (59.0 °C): [NT]); rXIAP (61.1 °C): […]); rSOD2 (59.4 °C): [NT]). Multiplex toxicity assay. HEK293T cells were grown in DMEM high glucose, supplemented with 10% FCS, sodium pyruvate (1 mM), penicillin (100 U/mL), and streptomycin (100 μg/mL) at 37 °C and 5% CO2. The day before experiment, cells were seeded in 96-well plates (2 × 10^4 cells per well) in culture medium with reduced serum content (0.2%). The next day, medium was changed, maintaining the low serum content and additionally containing 0.1% DMSO with 2 (1 or 10 μM) or 3 ([…]), 0.1% DMSO with bexarotene (100 μM) or flavopiridol (100 μM) as positive controls, or 0.1% DMSO alone as untreated control. Each sample was prepared in 4 biologically independent replicates. After incubation for 24 h, the medium was changed to 90 μL culture medium without phenol red (0.2% FCS) and 10 μL Cell Counting Kit- 8 solution (CCK-8, MedChem Express #HY-[…]), and absorbance was measured after 2 h incubation at 450 nm on a Tecan Spark Cyto (Tecan Group AG) to assess metabolic activity of the cells. Thereafter, Hoechst33342 (10 μM, #ab228551, Abcam Limited, Cambridge, UK) and Live-or-Dye Nuc-Fix Red (0.05×, Biotium, Inc., Fremont, CA, 1691 USA) were added and incubated for 30 min to detect pyknosis and cellular necrosis, respectively. After incubation, a total of 3 fluorescence images per well at 10× magnification was taken to detect Hoechst33342-positive cell nuclei (Ex: 381-400 nm, Em: 414-450 nm) and Live-or- Dyepositive cells (Ex: 543-566 nm, Em: 580-611 nm), respectively, using a Tecan Spark Cyto (Tecan Group AG). Necrotic cells were counte d using CellProfiler (Version 4.2.6). Reference readings for background correction and detection of autofluorescence were taken at the same wavelengths prior to staining. Before drug administration, after the first medium exchange, 24 h after drug administration, and after fluorescence imaging cell confluence was assessed using the Tecan Spark Cyto, to account for changes in cell confluence due to drug administration and cell handling. Pyknosis was defined via a cutoff range describing the significant shift of Hoechst33342-positive signal per nuclear area in bexarotene vs. vehicle treated cells. The mean intensity/area values for each well were further normalized to the […] increment of pyknosis. […]"}}, "data": [{"smiles": "Cc1c(C)n(-c2ccc(CC(=O)O)cc2)c2ccc(F)cc12", "note": "[compound 3]", "values": [{"measurement": "Kd", "setting": "[1]", "result": 200, "unit": "nM"}, {"measurement": "toxicity at the test concentrations of the gene expression study", "setting": "[2]", "result": "non-toxic"}, {"measurement": "concentration at which toxic effects start", "setting": "[2]", "result": 10, "unit": "µM"}]}, {"smiles": "Cc1c2c(n(-c3ccc(CC(=O)O)cc3)c1C)CCC(F)(F)C2", "note": "[compound 2]", "values": [{"measurement": "Kd", "setting": "[1]", "result": 1100, "unit": "nM"}, {"measurement": "toxicity at the test concentrations of the gene expression study", "setting": "[2]", "result": "non-toxic"}, {"measurement": "concentration at which toxic effects start", "setting": "[2]", "result": "> 30", "unit": "µM"}]}]}
